Experimental findings from US11279687B2, “Compounds and compositions for the inhibition of NAMPT” (Valo Health, Inc., priority 2010, dated 2022) are described below.

Usually pIC50 stands for the IC50 on a negative log10 scale, so that one unit is a factor of ten.

The subject of one test is A2780 cells. Briefly: In-vitro cell proliferation assay (SRB), A2780 cells.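 Further: viable cell number read as SRB absorbance, background from media-only wells subtracted, IC50 interpolated from percent inhibition at two bracketing compound concentrations.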 The format is cell-based. To be noted: A2780 cells, 72 hours, SRB, read-out: A2780 IC50.
A further test addresses NAMPT (Homo sapiens (Human), UniProt P43490). Kind of test: NAMPT biochemical inhibition assay (NMN quantified by mass spectrometry). Particulars: NAMPT biochemical inhibition; read-out: Biochem IC50.

Structures are written as SMILES. pIC50: −log10 of the molar value. Like-named read-outs stand apart in the source and are kept apart here.

Sequence of NAMPT (P43490 whole entry): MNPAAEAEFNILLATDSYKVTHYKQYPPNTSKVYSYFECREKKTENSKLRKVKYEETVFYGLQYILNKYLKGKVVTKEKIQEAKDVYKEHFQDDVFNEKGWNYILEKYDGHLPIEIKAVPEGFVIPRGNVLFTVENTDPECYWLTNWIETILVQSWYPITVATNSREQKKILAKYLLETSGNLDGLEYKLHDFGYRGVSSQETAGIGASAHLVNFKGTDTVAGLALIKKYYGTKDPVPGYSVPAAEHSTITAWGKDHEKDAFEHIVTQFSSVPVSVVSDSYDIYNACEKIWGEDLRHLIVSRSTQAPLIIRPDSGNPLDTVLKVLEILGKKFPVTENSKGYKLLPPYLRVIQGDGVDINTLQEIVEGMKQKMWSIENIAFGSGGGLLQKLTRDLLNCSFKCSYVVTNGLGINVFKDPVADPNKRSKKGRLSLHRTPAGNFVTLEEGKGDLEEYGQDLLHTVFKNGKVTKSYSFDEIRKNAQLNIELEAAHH

Regarding `O=C(NCc1cccnc1)Nc1ccc(S(=O)(=O)c2ccc(N3CCOCC3)cc2)cc1` [1-(4-{[4-(morpholin-4-yl)benzene]sulfonyl}phenyl)-3-(pyridin-3-ylmethyl)urea], the pIC50 in the test on A2780 cells (Homo sapiens, A2780, 72 h) was 7.83; on NAMPT, 8.74.
With `O=C(NCc1cccnc1)Nc1ccc(S(=O)(=O)N2CCOc3ccccc32)cc1` [1-[4-(3,4-dihydro-2H-1,4-benzoxazine-4-sulfonyl)phenyl]-3-(pyridin-3-ylmethyl)urea], the pIC50 in the test on A2780 cells (Homo sapiens, A2780, 72 h) is 6.34; on NAMPT it was 8.00.
For the molecule `Cn1ncc2cccc(S(=O)(=O)c3ccc(NC(=O)NCc4cccnc4)cc3)c21` [3-[4-(1-methyl-1H-indazole-7-sulfonyl)phenyl]-1-(pyridin-3-ylmethyl)urea], the pIC50 is 6.00 to 7.00 in the test with A2780 cells (Homo sapiens, A2780, 72 h) and 7.84 on NAMPT.
With `Cc1cc(C)cc(S(=O)(=O)c2ccc(NC(=O)NCc3cccnc3)cc2)c1` [3-{4-[(3,5-dimethylbenzene)sulfonyl]phenyl}-1-(pyridin-3-ylmethyl)urea], the pIC50 in the test with A2780 cells (Homo sapiens, A2780, 72 h) is 7.40; at NAMPT it was 9.00.
For the molecule `CCCn1cc(S(=O)(=O)c2ccc(NC(=O)NCc3cccnc3)cc2)cn1` [3-[4-(1-propyl-1H-pyrazole-4-sulfonyl)phenyl]-1-(pyridin-3-ylmethyl)urea], the pIC50 in the test on A2780 cells (Homo sapiens, A2780, 72 h) was 7.88; at NAMPT it was 8.20.
For the molecule `O=C(NCc1cccnc1)Nc1ccc(S(=O)(=O)N2CCN(c3ncccc3Cl)CC2)cc1` [3-{4-[4-(3-chloropyridin-2-yl)piperazine-1-sulfonyl]phenyl}-1-(pyridin-3-ylmethyl)urea], the pIC50 is 7.74 in the test with A2780 cells (Homo sapiens, A2780, 72 h) and 9.00 at NAMPT.
The like results for `Cc1ccc(S(=O)(=O)c2ccc(NC(=O)NCc3cccnc3)cc2)c(F)c1` [3-{4-[(2-fluoro-4-methylbenzene)sulfonyl]phenyl}-1-(pyridin-3-ylmethyl)urea] were, in that order, 6.29 and 8.70.
For the molecule `Cc1cc(NS(=O)(=O)c2ccc(NC(=O)NCc3cccnc3)cc2)ccc1C(C)C` [3-(4-{[3-methyl-4-(propan-2-yl)phenyl]sulfamoyl}phenyl)-1-(pyridin-3-ylmethyl)urea], the pIC50 is 6.97 in the test with A2780 cells (Homo sapiens, A2780, 72 h) and 8.70 on NAMPT.
`COc1cc(F)ccc1S(=O)(=O)c1ccc(NC(=O)NCc2cccnc2)cc1` [3-{4-[(4-fluoro-2-methoxybenzene)sulfonyl]phenyl}-1-(pyridin-3-ylmethyl)urea]: the pIC50 in the test with A2780 cells (Homo sapiens, A2780, 72 h) was 7.55; on NAMPT it was 8.70.
`Cc1ccccc1N1CCN(S(=O)(=O)c2ccc(NC(=O)NCc3cccnc3)cc2)CC1` [3-{4-[4-(2-methylphenyl)piperazine-1-sulfonyl]phenyl}-1-(pyridin-3-ylmethyl)urea]: the pIC50 was 6.97 with A2780 cells (Homo sapiens, A2780, 72 h) and 8.22 on NAMPT.
Regarding `COc1cccc(F)c1S(=O)(=O)c1ccc(NC(=O)NCc2cccnc2)cc1` [3-{4-[(2-fluoro-6-methoxybenzene)sulfonyl]phenyl}-1-(pyridin-3-ylmethyl)urea], the pIC50 in the test on A2780 cells (Homo sapiens, A2780, 72 h) is 8.00; on NAMPT, 8.70.
With `COc1ccc(Cl)cc1NS(=O)(=O)c1ccc(C(=O)NCc2ccc3nccn3c2)cc1` [4-[(5-chloro-2-methoxyphenyl)sulfamoyl]-N-{imidazo[1,2-a]pyridin-6-ylmethyl}benzamide], the pIC50 in the test on A2780 cells (Homo sapiens, A2780, 72 h) was 8.64; at NAMPT, 8.67.
Take `CC1CCCC(C)N1S(=O)(=O)c1ccc(NC(=O)NCc2cccnc2)cc1` (centres unmarked) [1-[4-(2,6-dimethylpiperidine-1-sulfonyl)phenyl]-3-(pyridin-3-ylmethyl)urea]: the pIC50 with A2780 cells (Homo sapiens, A2780, 72 h) was 6.79; on NAMPT it was 7.96.
As for `CCOc1cccc(S(=O)(=O)c2ccc(NC(=O)NCc3cccnc3)cc2)c1` [3-{4-[(3-ethoxybenzene)sulfonyl]phenyl}-1-(pyridin-3-ylmethyl)urea], the pIC50 in the test with A2780 cells (Homo sapiens, A2780, 72 h) is 7.08; on NAMPT, 8.77.
In the case of `CCN(CC)C(=O)c1ccccc1NS(=O)(=O)c1ccc(NC(=O)NCc2cccnc2)cc1` [N,N-diethyl-2-[(4-{[(pyridin-3-ylmethyl)carbamoyl]amino]benzene)sulfonamido]benzamide], the pIC50 in the test on A2780 cells was 8.22; on NAMPT it was 8.10.
Consider `CC(C)c1ccc(S(=O)(=O)c2ccc(NC(=O)NCc3cccnc3)cc2)c(Cl)n1` [3-{4-[2-chloro-6-(propan-2-yl)pyridine-3-sulfonyl]phenyl}-1-(pyridin-3-ylmethyl)urea], for which the pIC50 in the test with A2780 cells (Homo sapiens, A2780, 72 h) is 8.22; at NAMPT, 8.52.
For `O=C(NCc1cccnc1)Nc1ccc(S(=O)(=O)c2ccc(-n3cccn3)cc2F)cc1` [3-(4-{[2-fluoro-4-(1H-pyrazol-1-yl)benzene]sulfonyl}phenyl)-1-(pyridin-3-ylmethyl)urea], the pIC50 was 7.85 in the test with A2780 cells (Homo sapiens, A2780, 72 h) and 9.00 at NAMPT.
`CCN(CC)CCN1CCN(S(=O)(=O)c2ccc(NC(=O)NCc3cccnc3)cc2)CC1` [3-(4-{4-[2-(diethylamino)ethyl]piperazine-1-sulfonyl}phenyl)-1-(pyridin-3-ylmethyl)urea]: the pIC50 with A2780 cells (Homo sapiens, A2780, 72 h) is 7.64; at NAMPT it was 8.40.
`O=C(NCc1cccnc1)Nc1ccc(S(=O)(=O)c2ccc(-n3cccn3)cc2)cc1` [1-(4-{[4-(1H-pyrazol-1-yl)benzene]sulfonyl}phenyl)-3-(pyridin-3-ylmethyl)urea]: the pIC50 was 7.26 in the test with A2780 cells (Homo sapiens, A2780, 72 h) and 8.26 at NAMPT.
As for `CC[C@H]1CCCCN1S(=O)(=O)c1ccc(NC(=O)NCc2cccnc2)cc1` [3-{4-[(2S)-2-ethylpiperidine-1-sulfonyl]phenyl}-1-(pyridin-3-ylmethyl)urea], the pIC50 in the test on A2780 cells (Homo sapiens, A2780, 72 h) was 7.74; on NAMPT it was 8.40.
For the molecule `O=C(NCc1cccnc1)Nc1ccc([S+]([O-])c2ccc(Cl)cc2)cc1` (centres unmarked) [3-{4-[(4-chlorobenzene)sulfmyl]phenyl}-1-(pyridin-3-ylmethyl)urea], the pIC50 in the test with A2780 cells (Homo sapiens, A2780, 72 h) was 7.39; on NAMPT it was 8.10.
On the same counts, the results for `COc1cc(F)ccc1NS(=O)(=O)c1ccc(NC(=O)NCc2cccnc2)cc1` [3-{4-[(4-fluoro-2-methoxyphenyl)sulfamoyl]phenyl}-1-(pyridin-3-ylmethyl)urea] are 6.94 and 8.15.
For `CC(C)(C)CNS(=O)(=O)c1ccc(NC(=O)NCc2cccnc2)cc1` [3-{4-[(2,2-dimethylpropyl)sulfamoyl]phenyl}-1-(pyridin-3-ylmethyl)urea], the pIC50 with A2780 cells (Homo sapiens, A2780, 72 h) is 6.80; on NAMPT, 7.77.
With `O=C(NCc1cccnc1)Nc1ccc(S(=O)(=O)c2ccc(Cl)cc2Cl)cc1` [3-{4-[(2,4-dichlorobenzene)sulfonyl]phenyl}-1-(pyridin-3-ylmethyl)urea], the pIC50 is 6.08 in the test with A2780 cells (Homo sapiens, A2780, 72 h) and 8.40 at NAMPT.
As for `CCN(C1CCCCC1)S(=O)(=O)c1ccc(NC(=O)NCc2cccnc2)cc1` [3-{4-[cyclohexyl(ethyl)sulfamoyl]phenyl}-1-(pyridin-3-ylmethyl)urea], the pIC50 with A2780 cells (Homo sapiens, A2780, 72 h) is 6.91; on NAMPT, 8.30.
`O=C(NCc1cccnc1)Nc1ccc(S(=O)(=O)c2cccc(OC(F)(F)F)c2)cc1` [1-(pyridin-3-ylmethyl)-3-(4-{[3-(trifluoromethoxy)benzene]sulfonyl}phenyl)urea]: the pIC50 in the test with A2780 cells (Homo sapiens, A2780, 72 h) is 7.08; at NAMPT, 9.00.
`O=C(NCc1cccnc1)Nc1ccc(S(=O)(=O)NC2CCCCC2)cc1` [1-[4-(cyclohexylsulfamoyl)phenyl]-3-(pyridin-3-ylmethyl)urea]: the pIC50 was 6.69 in the test on A2780 cells (Homo sapiens, A2780, 72 h) and 9.00 on NAMPT.
Consider `O=C(NCc1cc2ccncc2s1)Nc1ccc(S(=O)(=O)c2ccccc2)cc1` [1-[4-(benzenesulfonyl)phenyl]-3-{thieno[2,3-c]pyridin-2-ylmethyl}urea], for which the pIC50 in the test on A2780 cells (Homo sapiens, A2780, 72 h) was < 4.52; at NAMPT, 6.34.
Take `O=C(NCc1cccnc1)Nc1ccc(S(=O)(=O)NC2(c3ccccc3)CCCC2)cc1` [1-{4-[(1-phenylcyclopentyl)sulfamoyl]phenyl}-3-(pyridin-3-ylmethyl)urea]: the pIC50 with A2780 cells (Homo sapiens, A2780, 72 h) is 6.74; on NAMPT, 7.54.
As to `O=C(NCc1cccnc1)Nc1ccc(S(=O)(=O)Nc2cccc3c2CCCC3)cc1` [3-(pyridin-3-ylmethyl)-1-{4-[(5,6,7,8-tetrahydronaphthalen-1-yl)sulfamoyl]phenyl}urea], the pIC50 in the test on A2780 cells (Homo sapiens, A2780, 72 h) was 7.35; at NAMPT, 9.52.
On the same counts, the results for `CC(C)COc1cccc(S(=O)(=O)c2ccc(NC(=O)NCc3cccnc3)cc2)c1` [3-(4-{[3-(2-methylpropoxy)benzene]sulfonyl]phenyl)-1-(pyridin-3-ylmethyl)urea] are 6.00 to 7.00 and 8.48.
Take `CCN(Cc1ccccc1)S(=O)(=O)c1ccc(NC(=O)NCc2cccnc2)cc1` [3-{4-[benzyl(ethyl)sulfamoyl]phenyl}-1-(pyridin-3-ylmethyl)urea]: the pIC50 in the test on A2780 cells (Homo sapiens, A2780, 72 h) was 8.15; on NAMPT, 9.05.
As for `O=C(NCc1cccnc1)Nc1ccc(S(=O)(=O)Nc2ccccc2I)cc1` [3-{4-[(2-iodophenyl)sulfamoyl]phenyl}-1-(pyridin-3-ylmethyl)urea], the pIC50 in the test with A2780 cells (Homo sapiens, A2780, 72 h) was 7.41; at NAMPT, 9.10.
On the same counts, the results for `O=C(NCc1cccnc1)Nc1ccc(S(=O)(=O)c2cc(F)ccc2F)cc1` [3-{4-[(2,5-difluorobenzene)sulfonyl]phenyl}-1-(pyridin-3-ylmethyl)urea] are 6.39 and 8.40.
For `COc1ccc(OC)c(NS(=O)(=O)c2ccc(NC(=O)NCc3cccnc3)cc2)c1` [3-{4-[(2,5-dimethoxyphenyl)sulfamoyl]phenyl}-1-(pyridin-3-ylmethyl)urea], the negative logarithm of the IC50 (pIC50) with A2780 cells (Homo sapiens, A2780, 72 h) was 8.40; at NAMPT, 8.92.
Consider `COc1ccc(S(=O)(=O)c2ccc(NC(=O)NCc3cccnc3)cc2)c(OC)c1` [3-{4-[(2,4-dimethoxybenzene)sulfonyl]phenyl}-1-(pyridin-3-ylmethyl)urea], for which the negative-log IC50 (pIC50) with A2780 cells (Homo sapiens, A2780, 72 h) was 7.33; at NAMPT, 8.30.
Consider `O=C(NCc1cncc(Cl)c1)Nc1ccc(S(=O)(=O)N2CCCCC2)cc1` [3-[(5-chloropyridin-3-yl)methyl]-1-[4-(piperidine-1-sulfonyl)phenyl]urea], for which the pIC50 in the test with A2780 cells (Homo sapiens, A2780, 72 h) was 4.74; at NAMPT, 7.32.
